Results taken from article PMC3828927, “Heterotropic Effect of β-lactam Antibiotics on Antioxidant Property of Haptoglobin (2-2)-Hemoglobin Complex” (Iranian Journal of Pharmaceutical Research : IJPR, 2011).

Target: T1, Hp (2-2)-Hb complex (Homo sapiens, UniProt P68871+P69905)
T1 construct: gene HBA1; with Haptoglobin
Experiment: guaiacol peroxidase assay, A470, clearance plot
Assay type: biochemical
Details: activator (heterotropic); binding site not shown; varied H2O2, 0.03 M guaiacol, 64 nM complex, 50 mM phosphate pH 7.5, 37 C

T1 sequence (P69905 2-142): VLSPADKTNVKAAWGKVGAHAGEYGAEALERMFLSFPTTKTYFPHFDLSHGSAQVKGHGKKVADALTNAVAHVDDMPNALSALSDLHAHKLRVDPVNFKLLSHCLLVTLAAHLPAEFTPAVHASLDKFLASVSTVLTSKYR
T1 sequence (P68871 2-147): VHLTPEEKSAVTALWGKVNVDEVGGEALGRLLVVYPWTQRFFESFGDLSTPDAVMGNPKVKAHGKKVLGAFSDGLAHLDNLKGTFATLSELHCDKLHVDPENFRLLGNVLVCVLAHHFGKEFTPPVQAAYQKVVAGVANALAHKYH
T1 sequence (P00738 19-160 partner): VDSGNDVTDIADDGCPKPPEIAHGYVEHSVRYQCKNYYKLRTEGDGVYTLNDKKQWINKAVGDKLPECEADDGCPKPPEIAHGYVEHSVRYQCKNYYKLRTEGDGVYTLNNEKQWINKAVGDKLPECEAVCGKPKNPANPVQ
T1 sequence (P00738 162-406 partner): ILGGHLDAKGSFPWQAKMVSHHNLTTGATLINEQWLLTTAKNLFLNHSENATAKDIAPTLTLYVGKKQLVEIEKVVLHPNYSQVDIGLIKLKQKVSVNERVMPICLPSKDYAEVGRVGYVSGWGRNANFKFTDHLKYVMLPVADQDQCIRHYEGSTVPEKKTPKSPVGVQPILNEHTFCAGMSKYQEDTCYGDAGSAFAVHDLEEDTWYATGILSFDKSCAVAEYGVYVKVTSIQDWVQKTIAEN

## CC1(C)S[C@@H]2[C@H](NC(=O)[C@H](N)c3ccccc3)C(=O)N2[C@H]1C(=O)O [ampicillin]
  % increase in peroxidase activity (CLmax) at 14 μg/mL: ~ 16%
